Source: patent publication US20240293402A1, “FORMULATION CONTAINING DIHYDROPYRIDAZINE-3,5-DIONE DERIVATIVE (as amended)” (CHUGAI SEIYAKU KABUSHIKI KAISHA, priority 2021, published 2024)

Key:
PiT-1 = biological target: T1, PiT-1 (Homo sapiens, UniProt Q8WUM9); details: general statement, reported in Patent Literatures 6 and 7; cited from earlier work
T1 sequence (Q8WUM9 1-679): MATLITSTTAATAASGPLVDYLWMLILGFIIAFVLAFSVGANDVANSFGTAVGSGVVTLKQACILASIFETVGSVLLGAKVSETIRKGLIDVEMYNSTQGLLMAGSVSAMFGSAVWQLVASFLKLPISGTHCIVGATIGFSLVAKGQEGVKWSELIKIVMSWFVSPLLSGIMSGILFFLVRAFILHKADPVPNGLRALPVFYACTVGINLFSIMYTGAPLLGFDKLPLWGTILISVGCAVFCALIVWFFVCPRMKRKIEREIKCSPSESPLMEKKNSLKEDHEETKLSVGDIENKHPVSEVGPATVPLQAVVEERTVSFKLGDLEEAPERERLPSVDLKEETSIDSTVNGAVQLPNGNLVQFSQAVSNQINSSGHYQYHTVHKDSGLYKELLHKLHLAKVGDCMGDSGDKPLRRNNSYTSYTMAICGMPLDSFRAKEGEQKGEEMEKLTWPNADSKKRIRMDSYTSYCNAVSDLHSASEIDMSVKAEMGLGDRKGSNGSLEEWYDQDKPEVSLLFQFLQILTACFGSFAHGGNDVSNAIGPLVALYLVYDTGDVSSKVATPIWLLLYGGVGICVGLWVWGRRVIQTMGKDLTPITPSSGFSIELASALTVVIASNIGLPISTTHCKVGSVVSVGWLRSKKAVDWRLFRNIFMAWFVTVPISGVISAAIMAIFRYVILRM

NaPi-IIb = biological target: T2, NaPi-IIb (Homo sapiens, UniProt O95436); details: general statement, reported in Patent Literatures 6 and 7; cited from earlier work
T2 sequence (O95436 1-690): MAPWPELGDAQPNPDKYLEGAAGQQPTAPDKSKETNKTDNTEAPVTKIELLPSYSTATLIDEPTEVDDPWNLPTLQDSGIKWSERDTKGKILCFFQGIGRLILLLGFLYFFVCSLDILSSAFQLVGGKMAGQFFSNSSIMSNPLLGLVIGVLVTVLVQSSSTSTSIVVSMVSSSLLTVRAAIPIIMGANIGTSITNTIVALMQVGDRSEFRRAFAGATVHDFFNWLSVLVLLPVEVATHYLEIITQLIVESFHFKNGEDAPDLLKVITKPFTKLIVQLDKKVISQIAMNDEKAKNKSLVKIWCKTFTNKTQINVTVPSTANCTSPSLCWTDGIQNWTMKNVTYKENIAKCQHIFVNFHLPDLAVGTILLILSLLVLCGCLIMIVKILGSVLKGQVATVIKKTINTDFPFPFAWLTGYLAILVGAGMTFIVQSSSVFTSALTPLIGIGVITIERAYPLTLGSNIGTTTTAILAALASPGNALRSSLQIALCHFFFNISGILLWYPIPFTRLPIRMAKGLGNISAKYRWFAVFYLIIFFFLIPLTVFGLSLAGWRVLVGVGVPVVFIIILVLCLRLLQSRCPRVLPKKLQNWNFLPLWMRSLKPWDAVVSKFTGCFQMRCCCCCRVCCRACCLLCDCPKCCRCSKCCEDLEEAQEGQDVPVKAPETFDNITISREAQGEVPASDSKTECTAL

Solubility in water = type: physicochemical; details: general statement
PiT-2 = biological target: T3, PiT-2 (Homo sapiens, UniProt Q08357); details: general statement, reported in Patent Literatures 6 and 7; cited from earlier work
T3 sequence (Q08357 1-652): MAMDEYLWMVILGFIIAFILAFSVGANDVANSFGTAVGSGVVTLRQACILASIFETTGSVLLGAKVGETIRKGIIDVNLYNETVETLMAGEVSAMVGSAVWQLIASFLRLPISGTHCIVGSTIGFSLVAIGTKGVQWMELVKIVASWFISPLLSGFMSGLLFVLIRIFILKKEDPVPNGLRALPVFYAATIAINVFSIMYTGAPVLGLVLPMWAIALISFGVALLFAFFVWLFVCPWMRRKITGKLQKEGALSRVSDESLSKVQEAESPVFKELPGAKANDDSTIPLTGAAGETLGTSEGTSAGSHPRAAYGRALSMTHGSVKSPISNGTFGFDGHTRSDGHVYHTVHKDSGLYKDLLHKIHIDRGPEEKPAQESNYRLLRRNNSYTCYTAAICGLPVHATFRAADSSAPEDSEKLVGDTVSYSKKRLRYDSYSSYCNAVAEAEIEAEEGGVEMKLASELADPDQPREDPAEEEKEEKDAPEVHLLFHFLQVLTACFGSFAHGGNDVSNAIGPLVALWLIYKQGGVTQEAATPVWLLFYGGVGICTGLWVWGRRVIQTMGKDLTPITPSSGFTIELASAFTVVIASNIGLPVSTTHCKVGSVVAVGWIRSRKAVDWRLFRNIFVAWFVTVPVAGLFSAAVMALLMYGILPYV

## COCCN(C)CCOc1ccc(CN2C(=O)C(C(=O)Nc3ccc(C(F)(F)F)cc3-c3cc(C(F)(F)F)ncn3)=C(O)C3(CCCC3)N2C)c(F)c1F.Cc1ccc(S(=O)(=O)O)cc1 [Compound I, 7-[[2,3-difluoro-4-[2-[2-methoxyethyl(methyl)amino]ethoxy]phenyl]methyl]-10-hydroxy-6-methyl-8-oxo-N-[4-(trifluoromethyl)-2-[6-(trifluoromethyl)pyrimidin-4-yl]phenyl]-6,7-diazaspiro[4,5]deca-9-ene-9-carboxamide]
PiT-1
  inhibitory action on PiT-1: strong inhibitory action
NaPi-IIb
  inhibitory action on NaPi-IIb: strong inhibitory action
Solubility in water
  solubility in water: hardly soluble in water
PiT-2
  inhibitory action on PiT-2: strong inhibitory action
